Data: PubChem BioAssay AID2060333 (Molecular Pharmacology Branch, DTP, NCI, 2025)
Where “and” joins values, the source holds several entries; their conditions need not be identical. Equal entries are not always repeated.

Tested on: 845751-090-R-J2-PDC tumor spheroid viability
Assay: Anticancer human tumor 845751-090-R-J2-PDC patient-derived head and neck squamous carcinoma cell line growth inhibition [IpAb]
Conditions: spheroids with HUVEC and MSC; for viability, T/C: stronger effect = lower value
Method in brief: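 Spheroids of 60% malignant cells, 25% HUVEC and 15% MSC were exposed to targeted agents combined with ipatasertib or abemaciclib. Doses started at or near clinical Cmax (10 microM when unknown) and fell in half-log steps.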

[1] = curve of first compound, second compound 0.1 µM
[2] = curve of first compound, second compound 0.316 µM
[3] = curve of first compound, second compound 1 µM
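Further: spheroids exposed to compounds for 7 days before readout.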
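Wherever viability, T/C is given: CTG3D luminescence normalised so that 100% = DMSO vehicle control.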

Question: What does the source list for `Cn1cnc2c(F)c(Nc3ccc(Br)cc3Cl)c(C(=O)NOCCO)cc21` + CC(C)NCC(C(=O)N1CCN(c2ncnc3c2C(C)CC3O)CC1)c1ccc(Cl)cc1?
Answer: IC50 [1]: < 9.49 nM; IC50 [2]: < 9.49 nM; IC50 [3]: < 9.49 nM; IC50 (curve of first compound, second compound 3.16 µM): < 9.49 nM; IC50 (curve of first compound, second compound 10 µM): < 9.49 nM; viability, T/C (second compound 0.1 µM, first compound 0.00949 µM): 40.2%; viability, T/C (second compound 0.1 µM, first compound 0.03 µM): 29.9%; viability, T/C (second compound 0.1 µM, first compound 0.0949 µM): 23.6%; viability, T/C (second compound 0.1 µM, first compound 0.3 µM): 20.6%; viability, T/C (second compound 0.1 µM, first compound 0.949 µM): 16.6%; viability, T/C (second compound 0.1 µM, first compound 3 µM): 12.3%; viability, T/C (second compound 0.316 µM, first compound 0.00949 µM): 17.2%; viability, T/C (second compound 0.316 µM, first compound 0.03 µM): 15.4%; viability, T/C (second compound 0.316 µM, first compound 0.0949 µM): 11.9%; viability, T/C (second compound 0.316 µM, first compound 0.3 µM): 11.2%; viability, T/C (second compound 0.316 µM, first compound 0.949 µM): 7.05%; viability, T/C (second compound 0.316 µM, first compound 3 µM): 5%; viability, T/C (second compound 1 µM, first compound 0.00949 µM): 14.4%; viability, T/C (second compound 1 µM, first compound 0.03 µM): 10.5%; viability, T/C (second compound 1 µM, first compound 0.0949 µM): 6.55%; viability, T/C (second compound 1 µM, first compound 0.3 µM): 4.68%; viability, T/C (second compound 1 µM, first compound 0.949 µM): 4.96%; viability, T/C (second compound 1 µM, first compound 3 µM): 2.43%; viability, T/C (second compound 3.16 µM, first compound 0.00949 µM): 11.3%; viability, T/C (second compound 3.16 µM, first compound 0.03 µM): 5.57%; viability, T/C (second compound 3.16 µM, first compound 0.0949 µM): 3.02%; viability, T/C (second compound 3.16 µM, first compound 0.3 µM): 3.4%; viability, T/C (second compound 3.16 µM, first compound 0.949 µM): 1.75%; viability, T/C (second compound 3.16 µM, first compound 3 µM): 1.07%; viability, T/C (second compound 10 µM, first compound 0.00949 µM): 2.67%; viability, T/C (second compound 10 µM, first compound 0.03 µM): 1.92%; viability, T/C (second compound 10 µM, first compound 0.0949 µM): 1.37%; viability, T/C (second compound 10 µM, first compound 0.3 µM): 1.13%; viability, T/C (second compound 10 µM, first compound 0.949 µM): 2.24%; viability, T/C (second compound 10 µM, first compound 3 µM): 0.56%

Question: With `Cn1ncc(Cl)c1-c1cc(C(=O)NC(CN)Cc2cccc(F)c2)sc1Cl` (configuration not stated) as the molecule, how does the viability, T/C (compound 0.0316 µM) read?
Answer: Its viability, T/C is 105% and 86.6%.

Question: And the viability, T/C (compound 0.1 µM)?
Answer: Its viability, T/C is 76.1% and 51.8%.

Question: And the viability, T/C (compound 0.316 µM)?
Answer: The viability, T/C was 52.6% and 32.5%.

Question: What about the viability, T/C (compound 1 µM) of the same molecule?
Answer: The viability, T/C was 38.7% and 29.1%.

Question: What about the viability, T/C (compound 3.16 µM) of the same molecule?
Answer: Its viability, T/C is 16% and 10.7%.

Question: What about the viability, T/C (compound 10 µM) of the same molecule?
Answer: Its viability, T/C is 1.14% and 1.09%.

Question: And the IC50 (curve of compound)?
Answer: The IC50 was 466 nM and 139 nM.

Question: Which IC50 (curve of first compound, second compound 0.01 µM) does the source give for `CC(C)n1nc(-c2ccc3oc(N)nc3c2)c2c(N)ncnc21` + CCN1CCN(Cc2ccc(Nc3ncc(F)c(-c4cc(F)c5nc(C)n(C(C)C)c5c4)n3)nc2)CC1 here?
Answer: The IC50 was 1.1 nM.

Question: What about the IC50 (curve of first compound, second compound 0.0316 µM) of the same molecule?
Answer: Its IC50 is 3.84 nM.

Question: And the IC50 [1]?
Answer: The IC50 was 2.92 nM.

Question: And the IC50 [2]?
Answer: The IC50 was 2.75 nM.

Question: What about the IC50 [3] of the same molecule?
Answer: The IC50 was 12.3 nM.

Question: What about the viability, T/C (second compound 0.01 µM, first compound 0.000316 µM) of the same molecule?
Answer: Its viability, T/C is 72.6%.

Question: And the viability, T/C (second compound 0.01 µM, first compound 0.001 µM)?
Answer: Its viability, T/C is 47.8%.

Question: What about the viability, T/C (second compound 0.01 µM, first compound 0.00316 µM) of the same molecule?
Answer: The viability, T/C was 39.2%.

Question: What about the viability, T/C (second compound 0.01 µM, first compound 0.01 µM) of the same molecule?
Answer: Its viability, T/C is 33%.

Question: What about the viability, T/C (second compound 0.01 µM, first compound 0.0316 µM) of the same molecule?
Answer: The viability, T/C was 26.8%.

Question: And the viability, T/C (second compound 0.01 µM, first compound 0.1 µM)?
Answer: The viability, T/C was 21.1%.

Question: What about the viability, T/C (second compound 0.0316 µM, first compound 0.000316 µM) of the same molecule?
Answer: Its viability, T/C is 66.7%.

Question: And the viability, T/C (second compound 0.0316 µM, first compound 0.001 µM)?
Answer: Its viability, T/C is 68.2%.

Question: What about the viability, T/C (second compound 0.0316 µM, first compound 0.00316 µM) of the same molecule?
Answer: Its viability, T/C is 54.3%.

Question: And the viability, T/C (second compound 0.0316 µM, first compound 0.01 µM)?
Answer: The viability, T/C was 28.1%.

Question: And the viability, T/C (second compound 0.0316 µM, first compound 0.0316 µM)?
Answer: The viability, T/C was 26.6%.

Question: What about the viability, T/C (second compound 0.0316 µM, first compound 0.1 µM) of the same molecule?
Answer: Its viability, T/C is 23.5%.

Question: What about the viability, T/C (second compound 0.1 µM, first compound 0.000316 µM) of the same molecule?
Answer: The viability, T/C was 62.6%.

Question: What about the viability, T/C (second compound 0.1 µM, first compound 0.001 µM) of the same molecule?
Answer: Its viability, T/C is 50.2%.

Question: What about the viability, T/C (second compound 0.1 µM, first compound 0.00316 µM) of the same molecule?
Answer: Its viability, T/C is 52.2%.

Question: And the viability, T/C (second compound 0.1 µM, first compound 0.01 µM)?
Answer: Its viability, T/C is 30.3%.

Question: What about the viability, T/C (second compound 0.1 µM, first compound 0.0316 µM) of the same molecule?
Answer: The viability, T/C was 25.7%.

Question: What about the viability, T/C (second compound 0.1 µM, first compound 0.1 µM) of the same molecule?
Answer: The viability, T/C was 20.6%.

Question: And the viability, T/C (second compound 0.316 µM, first compound 0.000316 µM)?
Answer: Its viability, T/C is 47.5%.

Question: What about the viability, T/C (second compound 0.316 µM, first compound 0.001 µM) of the same molecule?
Answer: The viability, T/C was 56.6%.

Question: What about the viability, T/C (second compound 0.316 µM, first compound 0.00316 µM) of the same molecule?
Answer: Its viability, T/C is 49.6%.

Question: And the viability, T/C (second compound 0.316 µM, first compound 0.01 µM)?
Answer: Its viability, T/C is 33.4%.

Question: What about the viability, T/C (second compound 0.316 µM, first compound 0.0316 µM) of the same molecule?
Answer: The viability, T/C was 32.7%.

Question: What about the viability, T/C (second compound 0.316 µM, first compound 0.1 µM) of the same molecule?
Answer: The viability, T/C was 30.2%.

Question: What about the viability, T/C (second compound 1 µM, first compound 0.000316 µM) of the same molecule?
Answer: Its viability, T/C is 56.7%.

Question: And the viability, T/C (second compound 1 µM, first compound 0.001 µM)?
Answer: The viability, T/C was 74%.

Question: And the viability, T/C (second compound 1 µM, first compound 0.00316 µM)?
Answer: The viability, T/C was 57.7%.

Question: What about the viability, T/C (second compound 1 µM, first compound 0.01 µM) of the same molecule?
Answer: The viability, T/C was 49%.

Question: What about the viability, T/C (second compound 1 µM, first compound 0.0316 µM) of the same molecule?
Answer: Its viability, T/C is 45.5%.

Question: What about the viability, T/C (second compound 1 µM, first compound 0.1 µM) of the same molecule?
Answer: The viability, T/C was 34.7%.
